From ChEMBL document CHEMBL1130055, “Discovery of a novel class of selective non-peptide antagonists for the human neurokinin-3 receptor. 1. Identification of the 4-quinolinecarboxamide framework” (J Med Chem, 1997)

Target: T1, Substance-K receptor (Homo sapiens, UniProt P21452)
T1 sequence (P21452 whole entry): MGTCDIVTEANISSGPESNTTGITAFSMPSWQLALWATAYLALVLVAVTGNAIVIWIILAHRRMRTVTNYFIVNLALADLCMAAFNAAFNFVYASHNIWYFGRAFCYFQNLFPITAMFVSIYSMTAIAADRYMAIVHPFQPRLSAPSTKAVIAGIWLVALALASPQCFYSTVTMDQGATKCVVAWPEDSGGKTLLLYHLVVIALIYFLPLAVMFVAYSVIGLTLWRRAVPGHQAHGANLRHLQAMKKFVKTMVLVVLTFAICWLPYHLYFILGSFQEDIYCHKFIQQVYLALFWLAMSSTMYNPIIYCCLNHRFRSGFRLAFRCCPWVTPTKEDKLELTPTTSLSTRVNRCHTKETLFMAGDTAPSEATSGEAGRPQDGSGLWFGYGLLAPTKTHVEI
Test: Inhibition of [125I]neurokinin A (NKA) binding in human Tachykinin receptor 2 of chinese hamster ovary (hNK-2-CHO) cell membranes.

Ki	Structure (SMILES)
8.33 µM	COC(=O)[C@@H](NC(=O)c1cc(-c2ccccc2)nc2ccccc12)c1ccccc1
1.22 µM	COC(=O)[C@H](NC(=O)c1cc(-c2ccccc2)nc2ccccc12)c1ccccc1
